Assay results published in ChEMBL document CHEMBL1201862, “PubChem BioAssay data set” (2004).
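These data come from cells grown in 96-well plates and exposed to compound for 48 hours at five concentrations. The concentration for 50% growth inhibition is given as GI50.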 Active and inactive are the calls of the source. No stated cut-off is given here; in the data, active = GI50 up to about 1.1 µM and inactive = higher.

What was measured:
Assay in all cases: NCI tumour cell line growth inhibition, 48 h
SN12C = test system: SN12C
A498 = test system: A498
SF-268 = test system: SF-268
KM-20L2 = test system: KM-20L2
HCC 2998 = test system: HCC 2998
NCI-H226 = test system: NCI-H226
UACC-62 = test system: UACC-62
ACHN = test system: ACHN
786-0 = test system: 786-0
HCT-15 = test system: HCT-15
SR = test system: SR
A549 = test system: A549
MOLT-4 = test system: MOLT-4
HCT-116 = test system: HCT-116
LXFL 529 = test system: LXFL 529
OVCAR-4 = test system: OVCAR-4
COLO 205 = test system: COLO 205
HOP-62 = test system: HOP-62
NCI-H460 = test system: NCI-H460
DLD-1 = test system: DLD-1
KM12 = test system: KM12
M14 = test system: M14
XF498 = test system: XF498
SK-MEL-2 = test system: SK-MEL-2
SF-295 = test system: SF-295
OVCAR-8 = test system: OVCAR-8
NCI-H522 = test system: NCI-H522
K562 = test system: K562
SK-MEL-5 = test system: SK-MEL-5
OVCAR-3 = test system: OVCAR-3
IGROV-1 = test system: IGROV-1
RXF 631 = test system: RXF 631
SNB-75 = test system: SNB-75
UACC-257 = test system: UACC-257
HT-29 = test system: HT-29
HOP-92 = test system: HOP-92
M19-MEL = test system: M19-MEL
Malme-3M = test system: Malme-3M
SF-539 = test system: SF-539
CAKI-1 = test system: CAKI-1
SNB-19 = test system: SNB-19
RPMI-8226 = test system: RPMI-8226
LOX IMVI = test system: LOX IMVI
UO-31 = test system: UO-31
CCRF-CEM = test system: CCRF-CEM
DMS-114 = test system: DMS-114
HL-60 = test system: HL-60
SW-620 = test system: SW-620
SK-OV-3 = test system: SK-OV-3
OVCAR-5 = test system: OVCAR-5
U-251 = test system: U-251
RXF 393 = test system: RXF 393
NCI-H23 = test system: NCI-H23
DMS-273 = test system: DMS-273
SNB-78 = test system: SNB-78
TK-10 = test system: TK-10
SK-MEL-28 = test system: SK-MEL-28
HOP-18 = test system: HOP-18
EKVX = test system: EKVX

SMILES: CCOC(=O)N1c2c(ccn2C)-c2ccn(C)c2N1C(=O)OCC
- GI50 (SN12C): 15.8 µM (inactive)
- GI50 (A498): 44.1 µM (inactive)
- GI50 (SF-268): 19.1 µM (inactive)
- GI50 (KM-20L2): 14.6 µM (inactive)
- GI50 (HCC 2998): 19.6 µM (inactive)
- GI50 (NCI-H226): 19.7 µM (inactive)
- GI50 (UACC-62): 16.7 µM (inactive)
- GI50 (ACHN): 15.8 µM (inactive)
- GI50 (786-0): 11.1 µM (inactive)
- GI50 (HCT-15): 12.9 µM
- GI50 (SR): 15.8 µM (inactive)
- GI50 (A549): 20.9 µM (inactive)
- GI50 (MOLT-4): 6.18 µM (inactive)
- GI50 (HCT-116): 14.8 µM (inactive)
- GI50 (LXFL 529): 17.2 µM (inactive)
- GI50 (OVCAR-4): > 10 µM (inactive)
- GI50 (COLO 205): 22.7 µM (inactive)
- GI50 (HOP-62): > 100 µM (inactive)
- GI50 (NCI-H460): 19.4 µM (inactive)
- GI50 (DLD-1): 13.6 µM (inactive)
- GI50 (KM12): 19.9 µM (inactive)
- GI50 (M14): 15.1 µM (inactive)
- GI50 (XF498): 17 µM (inactive)
- GI50 (SK-MEL-2): 21.4 µM (inactive)
- GI50 (SF-295): 15.3 µM (inactive)
- GI50 (OVCAR-8): 14.1 µM (inactive)
- GI50 (NCI-H522): 11.3 µM (inactive)
- GI50 (K562): 4.2 µM (inactive)
- GI50 (SK-MEL-5): > 100 µM (inactive)
- GI50 (OVCAR-3): 14.1 µM (inactive)
- GI50 (IGROV-1): 24.9 µM (inactive)
- GI50 (RXF 631): 18.9 µM (inactive)
- GI50 (SNB-75): 15.5 µM (inactive)
- GI50 (UACC-257): > 10 µM (inactive)
- GI50 (HT-29): 15.7 µM (inactive)
- GI50 (HOP-92): 20.6 µM (inactive)
- GI50 (M19-MEL): 26.4 µM (inactive)
- GI50 (Malme-3M): 19 µM (inactive)
- GI50 (SF-539): 20 µM (inactive)
- GI50 (CAKI-1): 18.3 µM (inactive)
- GI50 (SNB-19): > 10 µM (inactive)
- GI50 (RPMI-8226): 20.9 µM (inactive)
- GI50 (LOX IMVI): 12.9 µM (inactive)
- GI50 (UO-31): 19.8 µM (inactive)
- GI50 (CCRF-CEM): 2.64 µM (inactive)
- GI50 (DMS-114): > 10 µM (inactive)
- GI50 (HL-60): 5.09 µM (inactive)
- GI50 (SW-620): 15.2 µM (inactive)
- GI50 (SK-OV-3): 30.6 µM (inactive)
- GI50 (OVCAR-5): 17.4 µM (inactive)

SMILES: CC(=O)C1=CCC2c3[nH]c4ccccc4c3CCN2C1 (stereo not given)
- GI50 (U-251): 54.5 µM (inactive)
- GI50 (SN12C): 68.4 µM (inactive)
- GI50 (A498): > 100 µM (inactive)
- GI50 (RXF 393): 35.8 µM (inactive)
- GI50 (NCI-H23): 46.7 µM (inactive)
- GI50 (SF-268): 69.2 µM (inactive)
- GI50 (DMS-273): 34.5 µM (inactive)
- GI50 (KM-20L2): 21 µM (inactive)
- GI50 (HCC 2998): 55 µM (inactive)
- GI50 (NCI-H226): > 100 µM (inactive)
- GI50 (ACHN): 78 µM (inactive)
- GI50 (786-0): 35.1 µM (inactive)
- GI50 (HCT-15): 50.8 µM
- GI50 (SR): 31.8 µM (inactive)
- GI50 (A549): > 100 µM (inactive)
- GI50 (MOLT-4): 42.1 µM (inactive)
- GI50 (HCT-116): 45 µM (inactive)
- GI50 (LXFL 529): 66.8 µM (inactive)
- GI50 (OVCAR-4): 35.6 µM (inactive)
- GI50 (COLO 205): > 100 µM (inactive)
- GI50 (HOP-62): > 100 µM (inactive)
- GI50 (NCI-H460): 45 µM (inactive)
- GI50 (DLD-1): 70.3 µM (inactive)
- GI50 (KM12): 52.6 µM (inactive)
- GI50 (SNB-78): 32.1 µM (inactive)
- GI50 (M14): > 100 µM (inactive)
- GI50 (XF498): 62.5 µM (inactive)
- GI50 (SK-MEL-2): 66.4 µM (inactive)
- GI50 (SF-295): 98.6 µM (inactive)
- GI50 (OVCAR-8): 47.6 µM (inactive)
- GI50 (NCI-H522): 24.7 µM (inactive)
- GI50 (K562): 31 µM (inactive)
- GI50 (TK-10): > 100 µM (inactive)
- GI50 (SK-MEL-5): 50 µM (inactive)
- GI50 (OVCAR-3): 31.7 µM (inactive)
- GI50 (SK-MEL-28): > 100 µM (inactive)
- GI50 (IGROV-1): 61.1 µM (inactive)
- GI50 (RXF 631): 45.4 µM (inactive)
- GI50 (SNB-75): 15.1 µM (inactive)
- GI50 (HOP-18): > 100 µM (inactive)
- GI50 (UACC-257): > 100 µM (inactive)
- GI50 (HT-29): 31.3 µM (inactive)
- GI50 (HOP-92): 36.3 µM (inactive)
- GI50 (M19-MEL): > 100 µM (inactive)
- GI50 (Malme-3M): 72.1 µM (inactive)
- GI50 (SF-539): 26.6 µM (inactive)
- GI50 (SNB-19): > 100 µM (inactive)
- GI50 (LOX IMVI): 58.7 µM (inactive)
- GI50 (UO-31): > 100 µM (inactive)
- GI50 (CCRF-CEM): 38.5 µM (inactive)
- GI50 (HL-60): 45.3 µM (inactive)
- GI50 (SW-620): > 100 µM (inactive)
- GI50 (SK-OV-3): 21.6 µM (inactive)
- GI50 (EKVX): 67.1 µM (inactive)
- GI50 (OVCAR-5): > 100 µM (inactive)
